Reference: ChEMBL document CHEMBL3421576, “N-((1,3-Diphenyl-1H-pyrazol-4-yl)methyl)anilines: A novel class of anti-RSV agents” (Bioorg Med Chem Lett, 2015)

Columns and labels:
Coxsackievirus B5 = test: Antiviral activity against Coxsackievirus B5 infected in African green monkey Vero 76 cells after 3 days by plaque reduction assay; format: functional, organism-based
[1] = Cytotoxicity against hamster BHK21 cells assessed as cell viability after 72 hrs by MTT method; format: cell-based, Mesocricetus auratus, BHK-21
[2] = test system: Mammalian orthoreovirus 1; test: Antiviral activity against Reovirus 1 infected in hamster BHK21 cells assessed as protection against viral-induced cytopathogenecity after 3 to 4 days by MTT method; format: functional, cell-based; settings: Mammalian orthoreovirus 1, BHK-21
[3] = Cytotoxicity against African green monkey Vero 76 cells assessed as cell viability after 48 to 96 hrs by MTT method; format: cell-based; settings: chlorocebus sabaeus
[4] = Selectivity index, ratio of CC50 for African green monkey Vero 76 cells to EC50 for RSV infected in African green monkey Vero 76 cells
[5] = test system: Human immunodeficiency virus 1; test: Antiviral activity against HIV1 infected in human MT4 cells assessed as protection against viral-induced cytopathogenecity after 4 days by MTT method; format: functional, organism-based; settings: Human immunodeficiency virus 1, MT4, 96 h
[6] = Cytotoxicity against human MT4 cells assessed as cell viability after 96 hrs by MTT method; format: cell-based
[7] = Selectivity index, ratio of CC50 for bovine MDBK cells to EC50 for BVDV infected in bovine MDBK cells
Vaccinia virus = test: Antiviral activity against Vaccinia virus infected in African green monkey Vero 76 cells after 3 days by plaque reduction assay; format: functional, organism-based, Orthopoxvirus vaccinia
Yellow fever virus = test: Antiviral activity against YFV infected in hamster BHK21 cells assessed as protection against viral-induced cytopathogenecity after 3 to 4 days by MTT method; format: functional, organism-based, BHK-21
[8] = test system: Respiratory syncytial virus; test: Antiviral activity against RSV infected in African green monkey Vero 76 cells after 5 days by plaque reduction assay; format: functional, organism-based
Enterovirus C = test: Antiviral activity against Poliovirus Sb-1 infected in African green monkey Vero 76 cells after 2 days by plaque reduction assay; format: functional, organism-based
[9] = Cytotoxicity against bovine MDBK cells assessed as cell viability after 72 hrs by MTT method; format: cell-based, Bos taurus; settings: cattle
[10] = test system: Bovine viral diarrhea virus 1; test: Antiviral activity against BVDV infected in bovine MDBK cells assessed as protection against viral-induced cytopathogenecity after 3 to 4 days by MTT method; format: functional, organism-based
Human alphaherpesvirus 1 = test: Antiviral activity against HSV1 infected in African green monkey Vero 76 cells after 3 days by plaque reduction assay; format: functional, organism-based
[11] = test system: Vesicular stomatitis virus; test: Antiviral activity against VSV infected in African green monkey Vero 76 cells after 2 days by plaque reduction assay; format: functional, organism-based
[12] = Selectivity index, ratio of CC50 for hamster BHK21 cells to EC50 for YFV infected in hamster BHK21 cells; parameters: species or system BHK-21
[13] = Orthopoxvirus vaccinia, Vero, 72 h
[14] = human respiratory syncytial virus, Vero, 120 h
[15] = Enterovirus C, Sb-1, Vero, 48 h
[16] = Bovine viral diarrhea virus isolates and strains, MDBK
[17] = Human alphaherpesvirus 1, Vero, 72 h
[18] = Vesicular stomatitis virus, Vero, 48 h

Row | SMILES | EC50 (Coxsackievirus B5; Enterovirus B, Vero, 72 h) [µM] | CC50 at 72 h [1] [µM] | EC50 [2] [µM] | CC50 ([3]; Vero 76 cells) [µM] | Ratio CC50/EC50 [4] | EC50 [5] [µM] | CC50 at 96 h [6] [µM] | Ratio CC50/EC50 [7] | EC50 (Vaccinia virus; [13]) [µM] | EC50 (Yellow fever virus; Yellow fever virus, BHK-21) [µM] | EC50 [8, 14] [µM] | EC50 (Enterovirus C; [15]) [µM] | CC50 at 72 h [9] [µM] | EC50 [10, 16] [µM] | EC50 (Human alphaherpesvirus 1; [17]) [µM] | EC50 [11, 18] [µM] | Ratio CC50/EC50 [12] | also measured
1 | Clc1ccc(NCc2cn(-c3ccccc3)nc2-c2ccc(Cl)cc2)cc1 | > 90 | 73 | > 73 | 90 | 6.9 | > 100 | > 100 | >3.2 | > 90 | > 73 | 13 | > 90 | > 100 | 31 | > 90 | > 90 | – | –
2 | Cc1ccc(NCc2cn(-c3ccccc3)nc2-c2ccc(Cl)cc2)cc1 | > 100 | > 100 | > 100 | > 100 | >7.7 | > 100 | > 100 | >1.8 | > 100 | > 100 | 13 | > 100 | > 100 | 55 | > 100 | > 100 | – | –
3 | Clc1ccc(NCc2cn(-c3ccccc3)nc2-c2ccc(Br)cc2)cc1 | – | – | – | – | >11.1 | – | – | – | – | – | – | – | – | – | – | – | >2.3 | EC50 (Coxsackievirus B5; vero): > 100 µM; CC50 ([3]; vero 76): > 100 µM; EC50 (Vaccinia virus; vero): > 100 µM; EC50 (Yellow fever virus; bhk-21): 43 µM; EC50 ([8]; vero): 9 µM; EC50 (Enterovirus C; vero): > 100 µM; EC50 ([10]; mdbk): ≥ 100 µM; EC50 (Human alphaherpesvirus 1; vero): > 100 µM; EC50 ([11]; vero): > 100 µM
4 | Brc1ccc(NCc2cn(-c3ccccc3)nc2-c2ccc(Br)cc2)cc1 | > 88 | > 100 | > 100 | 88 | 11 | > 100 | > 100 | – | > 88 | 54 | 8 | > 88 | > 100 | > 100 | > 88 | > 88 | >1.8 | –
5 | Cc1ccc(-c2nn(-c3ccccc3)cc2CNc2ccc(Cl)cc2)cc1 | > 100 | > 100 | > 100 | > 100 | >7.1 | > 100 | > 100 | – | > 100 | 34 | 14 | > 100 | > 100 | > 100 | > 100 | > 100 | >2.9 | –
6 | Cc1ccc(-c2nn(-c3ccccc3)cc2CNc2ccccc2)cc1 | > 52 | > 100 | > 100 | 52 | 2.3 | > 100 | > 100 | – | > 52 | 38 | 23 | > 52 | > 100 | > 100 | > 52 | > 52 | >2.6 | –
7 | Brc1ccc(-c2nn(-c3ccccc3)cc2CNc2ccccc2)cc1 | > 52 | > 100 | > 100 | 52 | 5.8 | > 100 | > 100 | – | > 52 | 20 | 9 | > 52 | > 100 | > 100 | > 52 | > 52 | >5 | –
8 | Brc1ccc(NCc2cn(-c3ccccc3)nc2-c2ccccc2)cc1 | > 52 | > 100 | > 100 | 52 | 5.8 | > 100 | > 100 | >3.2 | > 52 | 32 | 9 | > 52 | > 100 | 31 | > 52 | > 52 | >3.1 | –
9 | Clc1ccc(NCc2cn(-c3ccccc3)nc2-c2ccccc2)cc1 | > 65 | > 100 | > 100 | 65 | 10.8 | > 100 | > 100 | >3.4 | > 65 | 29 | 6 | > 65 | > 100 | 29 | > 65 | > 65 | – | –
10 | Cc1ccc(NCc2cn(-c3ccccc3)nc2-c2ccccc2)cc1 | > 100 | > 100 | > 100 | > 100 | >3.6 | > 100 | > 100 | >1.9 | > 100 | 65 | 28 | > 100 | > 100 | 53 | > 100 | > 100 | >1.5 | –
11 | Cc1ccc(NCc2cn(-c3ccccc3)nc2-c2ccc(C(F)(F)F)cc2)cc1 | > 82 | 88 | > 88 | 82 | 3.3 | > 100 | > 100 | >1.8 | > 82 | > 88 | 25 | > 82 | > 100 | 54 | > 82 | > 82 | – | –
12 | NC(=O)c1ncn([C@@H]2O[C@H](CO)[C@@H](O)[C@H]2O)n1 [RIBAVIRIN] | – | – | – | > 100 | >2.8 | – | – | 3 | – | – | 35 | – | 57 | 19 | – | – | – | –
